Laboratory results from article PMC10734298 (ACS Omega, 2023).
Read-outs that look alike come from different tables or passages of the source.

How the values were obtained:
[1] = tested on: A/Vladivostok/2/09 (H1N1); assay: microbe, parasite or virus in culture; assay type: cell-based, influenza A virus; conditions: for EC50: Influenza A virus, H1N1, MDCK
[2] = tested on: A/Almaty/8/98(H3N2); assay: microbe, parasite or virus in culture; assay type: cell-based, influenza A virus; conditions: for EC50: Influenza A virus, H3N2, MDCK
[3] = tested on: A/Tern/South Africa/1/61(H5N3); assay: microbe, parasite or virus in culture; assay type: cell-based, influenza A virus; conditions: for EC50: Influenza A virus, H5N3, MDCK
[4] = tested on: A/chicken/FPV/Rostock/1934(H7N1); assay type: cell-based, influenza A virus
[5] = tested on: A/Vladivostok/2/09 (H1N1); assay: animal or person; assay type: in vivo; conditions: Influenza A virus
[6] = tested on: A/Almaty/8/98(H3N2); assay: animal or person; assay type: in vivo, influenza A virus; conditions: for EC50: Influenza A virus, H3N2
[7] = tested on: A/Tern/South Africa/1/61(H5N3); assay: animal or person; assay type: in vivo, influenza A virus; conditions: for EC50: Influenza A virus, H5N3
[8] = tested on: A/chicken/FPV/Rostock/1934(H7N1); design: species or system influenza A virus; conditions: in vivo
[9] = tested on: A/Vladivostok/2/09 (H1N1); design: species or system influenza A virus
[10] = tested on: A/Almaty/8/98(H3N2); design: species or system influenza A virus
[11] = tested on: A/Tern/South Africa/1/61 (H5N3); design: species or system influenza A virus
[12] = tested on: A/chicken/FPV/Rostock/1934 (H7N1); design: species or system influenza A virus
[13] = tested on: A/Vladivostok/2/09 (H1N1); assay type: biochemical, influenza A virus; conditions: read-out: Hemagglutination Inhibition Concentration 50 (HIC50)
[14] = tested on: A/Almaty/8/98(H3N2); assay type: biochemical, influenza A virus; conditions: read-out: Hemagglutination Inhibition Concentration 50 (HIC50)
[15] = tested on: A/Tern/South Africa/1/61 (H5N3); assay type: biochemical, influenza A virus; conditions: read-out: Hemagglutination Inhibition Concentration 50 (HIC50)
[16] = tested on: A/chicken/FPV/Rostock/1934 (H7N1); assay type: biochemical, influenza A virus; conditions: read-out: Hemagglutination Inhibition Concentration 50 (HIC50)
[17] = molecular target: NA of A/Tern/South Africa/1/61 (H5N3) (Influenza A virus, UniProt Q6XV52); assay: biochemical
NA of A/Tern/South Africa/1/61 (H5N3), sequence (Q6XV52 whole entry, looked up): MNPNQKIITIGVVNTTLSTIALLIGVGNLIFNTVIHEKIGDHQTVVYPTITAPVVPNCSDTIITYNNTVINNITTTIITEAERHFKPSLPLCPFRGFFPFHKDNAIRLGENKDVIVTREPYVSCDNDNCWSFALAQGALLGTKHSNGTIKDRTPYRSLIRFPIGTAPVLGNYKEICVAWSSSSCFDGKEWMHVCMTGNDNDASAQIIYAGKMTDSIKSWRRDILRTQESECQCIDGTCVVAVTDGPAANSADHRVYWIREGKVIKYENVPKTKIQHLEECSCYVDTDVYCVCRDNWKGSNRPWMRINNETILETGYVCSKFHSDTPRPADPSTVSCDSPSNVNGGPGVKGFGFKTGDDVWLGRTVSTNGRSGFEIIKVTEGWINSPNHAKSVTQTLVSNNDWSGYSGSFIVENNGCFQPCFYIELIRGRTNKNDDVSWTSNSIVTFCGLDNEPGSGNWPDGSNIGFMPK

[18] = molecular target: NA of A/chicken/FPV/Rostock/1934 (H7N1) (Influenza A virus, UniProt Q64968); assay type: biochemical; conditions: read-out: Neuraminidase Inhibition Concentration 50 (NIC50)
NA of A/chicken/FPV/Rostock/1934 (H7N1), sequence (Q64968 whole entry, looked up): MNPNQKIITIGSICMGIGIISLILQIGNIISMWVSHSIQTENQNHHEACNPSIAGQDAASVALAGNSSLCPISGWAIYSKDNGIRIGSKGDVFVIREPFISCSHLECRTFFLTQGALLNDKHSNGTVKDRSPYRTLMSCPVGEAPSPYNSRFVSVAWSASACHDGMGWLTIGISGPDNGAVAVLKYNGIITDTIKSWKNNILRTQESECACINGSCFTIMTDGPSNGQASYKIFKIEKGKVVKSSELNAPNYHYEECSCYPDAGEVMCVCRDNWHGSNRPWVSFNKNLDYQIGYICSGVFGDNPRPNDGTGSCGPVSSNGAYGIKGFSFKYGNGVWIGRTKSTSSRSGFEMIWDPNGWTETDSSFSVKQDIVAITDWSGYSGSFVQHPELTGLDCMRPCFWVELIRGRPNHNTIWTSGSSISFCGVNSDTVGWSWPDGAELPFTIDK

[19] = tested on: influenza virus (all tested viruses); assay: microbe, parasite or virus in culture; assay type: cell-based, influenza A virus; conditions: unidentified influenza virus, MDCK, read-out: EC50 value
[20] = Toxicity in MDCK cells; conditions: dog
[21] = Toxicity in fertilized chicken eggs; conditions: in vivo, other: inoculated into the allantoic cavity
[22] = tested on: NA protein of panel of viruses; assay: NA inhibition assay, whole virus panel; assay type: biochemical, influenza A virus; conditions: read-out: concentrations inhibiting the NA activity; range over panel viruses

| SMILES | EC50 [1] | EC50 [2] | EC50 [3] | EC50 [6] | EC50 [7] | Virus Titer Reduction Factor (VTRF) [9] | Virus Titer Reduction Factor (VTRF) [10] | Virus Titer Reduction Factor (VTRF) [11] | Virus Titer Reduction Factor (VTRF) [12] | IC50 [13] | IC50 [14] | IC50 [15] | IC50 [16] | IC50 [17] | IC50 [18] | EC50 [19] | CC50 at 48 h [20] | CC50 at 5 days [21] | further results |
| --- | --- | --- | --- | --- | --- | --- | --- | --- | --- | --- | --- | --- | --- | --- | --- | --- | --- | --- | --- |
| COc1cc(-c2oc3cc(O)cc(O)c3c(=O)c2O)ccc1O [isorhamnetin] | 56 ± 0.45 µM | 28 ± 0.34 µM | 35.4 ± 0.18 µM | 28 ± 0.34 µM | 35.4 ± 0.18 µM | 1.5 ± 0.02 | 1.5 ± 0.02 | 1.9 ± 0.02 | 1.5 ± 0.02 | 156 ± 2 µM | 50.5 ± 0.45 µM | 39.3 ± 0.7 µM | 48.2 ± 1.7 µM | 370 ± 7.5 µM | 68.2 ± 1.2 µM | 28 to 56 µM | > 280 µM | > 420 µM | SI [1]: >5.0; SI [2]: >10.0; SI [3]: >7.9; SI [4]: >8.1; EC50 [5]: 56 ± 0.45 µM; SI ([6]; in vivo): >15; SI ([7]; in vivo): >12.0; SI [8]: >12.1 |
| CCOC(=O)C1=C[C@@H](OC(CC)CC)[C@H](NC(C)=O)[C@@H](N)C1 [oseltamivir] | 9.091 ± 0.04 µM | 1.33 ± 0.028 µM | 1.65 ± 0.027 µM | 1.33 ± 0.028 µM | 1.65 ± 0.027 µM | 1.0 ± 0.02 | 1.0 ± 0.02 | 1.0 ± 0.01 | 1.0 ± 0.02 | 155 ± 5.1 µM | 145 ± 6.6 µM | 155 ± 2 µM | 135 ± 6.6 µM | 20.3 ± 0.5 µM | 6.1 ± 0.2 µM | 1.3 to 9.1 µM | > 100 µM | > 150 µM | IC50 [22]: 4 to 20.3 µM |
